The assay relates to tissue factor (TF) and activated Factor VII (FVIIa) mediation of vascular lesion formation. In words: Vascular lesion formation after carotid endarterectomy in baboons. The format is in vivo. The following applies: baboon. The method, then:
Measurements were performed for vascular lesion formation on day 30. The results in 5 treated animals were compared with the findings in 5 concurrent vehicle buffer-infused controls.
Under halothane anesthesia and sterile operating conditions, animals labeled with autologous ^111In-platelets received intravenous infusions of DEGR-FVIIa using the tether system for continuous intravenous administration (initial bolus injection of 1 mg/kg followed by continuous intravenous infusion of 50 μg/kg/hr. The animals received surgical carotid endarterectomy, bilateral brachial artery or bilateral femoral artery Fogarty balloon catheter angioplasties.
The DEGR-FVIIa was administered for 7 or 30 days by continuous infusions via venous catheter using the tether system. Thirty days after surgery the animals were anesthetized with halothane and underwent in situ pressure-perfusion fixation with 4% paraformaldehyde containing 0.1% glutaraldeyde for 30 min. […]
Carotid endarterectomy was performed through a midline neck incision using the technique of Hanson et al., Hypertension 18:I170-I-176 (1991) and Krupski et al., Circulation 84:1749-1757 (1991), incorporated herein by reference. […] The endarterectomy was then performed beginning 1 cm from the divided end of the everted vessel segment and continued for a measured distance of 1 cm. […]

In the case of “DEGR-Factor VIIa: Recombinant human Factor VIIa with its active site derivatized by Dansyl-L-Glu-Gly-Arg-chloromethyl Ketone (DEGRck)”, the intimal area result is “A similar result” (treated for 30 days, examined at 30 days) and “significantly decreased” (treated for seven days, studied at 30 days, versus control).

These data come from US20040087498A1, “Modified factor VII” (Novo Nordisk Health Care AG, priority 1991, published 2004).
